Patent US20200129523A1, “SHIP INHIBITION TO INDUCE EXPRESSION OF GRANULOCYTE COLONY STIMULATING FACTOR IN A SUBJECT” (THE RESEARCH FOUNDATION FOR THE STATE UNIVERSITY OF NEW YORK, priority 2014, published 2020)

How the values were obtained:
G-CSF = G-CSF ELISA of serum of treated mice; assay type: in vivo; details: 3AC 26.5 mg/kg i.p. 5 days, vs vehicle
Method: Peripheral blood was collected in serum separation microvette tubes (SARSTEDT). Tubes were kept at room temperature for 2 hrs. and then spun at 2000×g for 20 min as per manufacturers recommendation. Serum levels of G-CSF in treated mice were determined using a Mouse G-CSF Quantikine Elisa kit (R&D systems).

[1] = test system: radiation-induced myeloablation; details: post radiation-induced myeloablation; cited from earlier work
[2] = test system: radiation-induced myeloablation; assay: Lymphocyte and WBC recovery in radiation induced bone marrow failure model; assay type: in vivo, C57BL/6J mice; details: 550 Rads sub-lethal irradiation, 3AC daily 7 days i.p., vs vehicle
Method: We utilized a radiation-induced hematological myeblation to create our bone marrow failure model. C57BL/6J mice (8-12 week) (The Jackson Laboratory, Bar Harbor, Me.) were sub-lethally irradiated at 550 Rads. 3AC and vehicle were administered daily for 7 days post irradiation via IP injection. PB was collected by submandibular bleeding on days 8, 15, 22 and 32 and analyzed for WBC and lymphocyte counts [Thousands per microliter (K/uL)] on a Hemavet 950S (Drew Scientific, Waterbury, Conn., USA) analysis.

LT-HSC = assay: Cell cycle analysis of BM LT-HSC (Hoechst / Pyronin Y); assay type: in vivo, C57BL/6NTac mice; details: 3AC 26.5 mg/kg i.p. 5 days, vs vehicle
Method: WBM cells were stained with LSKCD34 and fixed in BD Cytofix/Cytoperm buffer for 30 minutes on ice. Fixed cells were stained with 10 μM Hoechst 33342 (HO; Sigma-Aldrich) for 45 min at 37° C. The cells were then incubated with 5 μM Pyronin Y (PY; Sigma-Aldrich) in HBSS medium with 2% FBS in the presence of 50 μM verapamil (Sigma-Aldrich) for 30 minutes at 37° C., washed, and immediately analyzed by UV laser-equipped BD LSRII analyzer.

HSC compartment = assay: Flow cytometric quantitation of hematopoietic stem/progenitor populations and cellularity in bone marrow of treated mice; assay type: in vivo, C57BL/6NTac mice
Method: HSC phenotype, cell-cycle progression, G-CSF neutralization, and CXCR4 MFI determination by FACS analysis was performed on whole bone marrow (WBM) cells harvested from a tibia and femur pair obtained from SHIPi and vehicle treated 8-12 week old male C57BL/6NTac mice (Taconic). Generation of the CD45.1×CD45.2 strain utilized in the CRU assay were obtained by intercrossing C57BL6/J (CD45.2) and B6.SJL (CD45.1), as previously described.^5 The SUNY Upstate Medical University Committee for Humane Use of Animals approved all animal experiments.
In vivo administration of 3AC was previously described.^14 Briefly, 3AC is resuspended as an emulsion in 0.3% Klucel/H20. Mice were treated via intraperitoneal injection every 24 hrs for 5 days at a final concentration of 26.5 mg/kg. Analysis and transplants were performed on day 6. The 3AC derivative K118 (Soluble SHIPi) was suspended in pure H2O and heated at 100° C. for ˜15 min to allow the compound to enter solution. The delivery method was the same as with 3AC, however, the mice were treated for 5 days at a final concentration of 10 mg/kg. Vehicle cohorts for 3AC were treated with 0.3% Klucel/H20 and K118 were treated with pure H2O.
Cell isolation was performed according to method detailed in Hazen et al.^6 Briefly, WBM was flushed from both femurs and tibias per mouse with a 25-gauge needle, red blood cell lysed (eBioscience), and resuspended in staining media comprised of Hanks Buffered Saline Solution (HBSS), 2% heat inactivated fetal bovine serum (FBS), and 10 mM HEPES (Sigma). The cells harvested for the CRU assay were flushed, red blood cell lysed, washed, and resuspended in sterile phosphate buffered saline (PBS). Peripheral blood mononuclear cells (PBMC) were collected via submandibular bleed in EDTA Micorvette tubes (SARSTEDT).
All antibodies were from BD Biosciences or eBioscience. All WBM, PBMC and BM derived MSC cell populations were Fc blocked on ice for 10 min prior to antibody staining. Global reconstitution was determined by staining PBMC with CD45.1-PeCy7 and CD45.2-APC. Multi-lineage repopulation was determined by staining PBMC with CD3-FITC (145-2C11), CD19-PerCP5.5 (1D3), Mac1-PE (M1/70), Gr1-Alexa700 (RB6-8C5) and NK1.1-APC-Cy7 (PK136). The Lin−cKit+Sca1+CD34−Flk2− (LSKF34−) phenotype was utilized to determine frequency of LT-HSC, ST-HSC, and MPP; the stain was comprised of Lin-PerCP 5.5, cKit-APC (2B8), Sca1-PeCy7 (D7), CD34-FITC (RAM34), Flk2-PE (A2F10). LSKF-CXCR4 stain was used to determine surface expression of the homing marker CXCR4. All cells were washed twice with staining media, resuspended in staining media plus DAPI for dead cell exclusion, and then analyzed on a flow cytometer LSRII (BD Biosciences). All flow cytometry data was analyzed using FlowJo (9.4.3) software.

[3] = cited from earlier work
HSC = assay: CRU assay (competitive repopulating units), primary and secondary; assay type: in vivo, mice
Method: CD45.1^+45.2^+-recipient mice were given a split dose of 550 Rads (x-ray source, RS2000-RAD source technologies, inc.) 4 hours apart for a lethal total dose of 1100 Rads. WBM (5×10^5) cells from 3AC (CD45.2) treated mice were competed with WBM cells from vehicle (CD45.1) treated mice and injected retro-orbitally into CD45.1^+45.2^+ hosts. PBMC multi-lineage reconstitution was evaluated every month post-transplant for 4 months. Transplanted mice were euthanized and serially transplanted to determine self-renewal capacity. Repopulating Units (RU) determination was previously decribed.^15 Briefly, RU=(C×CD45.2 repopulation %)/(100−CD45.2 repopulation %) where C=10^5 competitor cells.^6
Normal Repopulating units (RU) are calculated based on total number of competitor cells transplanted. Due to the expansion in the bone marrow compartment of SHIPi treated mice, we calculated the absolute RU numbers based on RU output determined by CRU assay and total BM cellularity. Total BM cellularity was determined via hemacytometer (BioRAD, TC20 cell counter) based on a total BM cells obtained from an intact set of femurs and tibias for each mouse in the study. Absolute RU=(Total BM cellularity/5×10^5)×RU.

[4] = transient SHIPi treatment; cited from earlier work
PDGFRα+CD51+ MSC = assay: In vivo MSC immunophenotyping by flow cytometry; set-up: species or system mice; details: 3AC 26.5 mg/kg i.p. 5 days, vs vehicle
Method: PDGFRα^+CD51^+ MSC were detected using methods and reagents as described by Iyer et al.^8 Femurs, tibias, humeri, ulnas, radii, and pelvis were dissected; the bone fragments were cleaned, cut into tiny pieces, and then crushed using a mortar and pestle. The bone chips were then washed several times in HBSS supplemented with 2% heat-inactivated FBS (HBSS/2% HI-FBS) and HBSS only, and then spun at 350×g for 5 mins. The pellet was re-suspended in 3 mg/mL type I collagenase (Worthington) and 15 μg/mL DNAase (Sigma, St. Louis, Mo.) dissolved in HBSS and incubated at 37° C. for 30 min at 110 rpm, this step was repeated twice. Following incubation, mononuclear cells were obtained using a Ficoll gradient ([…] and Histopaque-1077; Sigma, St. Louis, Mo.), and were then used for further analysis. Cells were stained with antibodies as described in Iyer et al.^8

[5] = 3AC 26.5 mg/kg i.p. 5 days, BM, vs vehicle
[6] = 3AC 26.5 mg/kg i.p. 5 days, vs vehicle

CC(C)CCC[C@@H](C)[C@@H]1CC[C@H]2[C@@H]3CCC4C[C@H](N)CC[C@]4(C)[C@H]3CC[C@@]21C (stereo partly drawn) [3AC]
G-CSF production in vivo (G-CSF): super-induces
G-CSF production in vivo (G-CSF; listed as SHIPi): increases
recovery of neutrophil numbers [1]: more rapid recovery
recovery of platelet numbers [1]: more rapid recovery
recovery of lymphocyte numbers [2]: significantly improved recovery
recovery of white blood cell (WBC) numbers [2]: significantly improved recovery
frequency of LT-HSC in S and G2 phases of the cell cycle (LT-HSC): significantly greater frequency
absolute number of LSK cells (HSC compartment; [5]): significantly increases
frequency of LSK cells (HSC compartment; [5]): significantly increases
CXCR4 surface expression on expanded HSC pool (HSC compartment; 3AC 26.5 mg/kg i.p. 5 days, MFI by FACS): does not cause a reduction
frequency of LT-HSC (LSKFlk2-CD34-) in BM (HSC compartment; [6]): increases the frequency
frequency of MPP (LSKFlk2+CD34+) in BM (HSC compartment; [6]): increases the frequency
frequency of ST-HSC (LSKFlk2-CD34+) in BM (HSC compartment; [6]): increases the frequency
expansion in BM of cells with a primitive HSC phenotype (HSC compartment; 3AC 26.5 mg/kg i.p. 5 days, frequency combined with BM cellularity): 3-4 fold
bone marrow cellularity (BMC) (HSC compartment; 3AC 26.5 mg/kg i.p. every 24 hrs for 5 days, analysis day 6, vs vehicle): significant increase
aqueous solubility [3]: poor aqueous solubility
CRU frequency (HSC; BM of 3AC vs vehicle donors): increases
increase in cells with HSC capacity (absolute CRU numbers) (HSC; after accounting for total BM cellularity, vs vehicle): ~6 fold
global blood cell reconstitution by BM cells of treated donors (HSC; primary CRU, 3AC-treated vs vehicle-treated donors, monthly for 4 months post-transplant): significantly greater
lineage reconstitution (B, T, NK, myeloid) (HSC; primary CRU, entire post-transplant period): greater proportion of all major blood cell lineages analyzed
bias or impairment in lineage output after serial transfer (HSC; secondary CRU hosts, 1 month post-transplant): did not observe a significant bias or impairment
repopulation of all major lineages in secondary hosts (HSC; secondary CRU, vs competing vehicle BM): significantly higher
development of pulmonary and gastrointestinal inflammation [4]: does not induce
Pα+51+ MSC compartment size in BM (PDGFRα+CD51+ MSC): approximate doubling
